From patent US20230192617A1, “AZABICYCLIC(THIO)AMIDES AS FUNGICIDAL COMPOUNDS” (Bayer CropScience Aktiengesellschaft, priority 2020, published 2023)

Assays:
[1] = test system: Colletotrichum lindemuthianum; test: B-8. Colletotrichum lindemuthianum in vitro cell test; format: cell-based; conditions: 144 h, 20 ppm of active ingredient, 6 days incubation, liquid culture, absorbance, read-out: efficacy (inhibition of fungal growth)
Outline: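 Spore suspension of C. lindemuthianum in liquid medium exposed to DMSO-solubilized compounds (final DMSO ≤1%) for 6 days. Mycelial growth read by absorbance, with inhibition calculated relative to compound-free control wells.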

Alternaria alternata = Alternaria alternata in vitro cell test; format: cell-based; conditions: 120 h, 20 ppm of active ingredient, liquid culture, 5 days incubation, spectrometric measurement of mycelium growth, read-out: efficacy (inhibition of fungal growth)
Outline: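 Liquid culture assay in which A. alternata spores in medium received DMSO-solubilized compound (final DMSO ≤1%). After 5 days, mycelium growth was measured spectrometrically. Inhibition was calculated against fungicide-free control wells.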

[2] = Measurement of Log P values by HPLC on reversed phase columns (EEC directive 79/831 Annex V.A8); format: physicochemical; conditions: reversed phase HPLC column, method [a]: LC-UV, acidic range, 0.1% formic acid in water and acetonitrile as eluent
Outline: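 Reversed-phase HPLC with UV detection per EEC 79/831 Annex V.A8, linear 10–95% acetonitrile gradient. Aqueous eluent: 0.1% formic acid (acidic), 0.001 M ammonium acetate (neutral), or 0.1% phosphoric acid (acidic); multiple values in one method joined by "+".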

Botrytis cinerea [3] = test: In vivo preventive test on Botrytis cinerea (grey mould); conditions: 500 ppm of active ingredient, preventive spray on gherkin or cabbage, evaluated 4 to 5 days after inoculation, read-out: efficacy
Outline: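 Young gherkin or cabbage plants were sprayed with compound in DMSO/acetone/Tween 80 diluted in water, then inoculated 24 hours later with a B. cinerea spore suspension. Incubation lasted 4 to 5 days: gherkin at 17° C., 90% relative humidity; cabbage at 20° C., 100% relative humidity.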

[4] = test system: Colletotrichum lindemuthianum; test: In vivo preventive test on Colletotrichum lindemuthianum (leaf spot on bean); conditions: 168 h, 500 ppm of active ingredient, preventive spray on bean, evaluated 7 days after inoculation, read-out: efficacy
Outline: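 Young bean plants sprayed with compound in DMSO/acetone/Tween 80 diluted in water; solvent-only controls. Inoculated 24 h later with C. lindemuthianum spore suspension, then kept 24 h at 20 °C/100% RH and 6 days at 20 °C/90% RH.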

Sphaerotheca fuliginea = test: In vivo preventive test on Sphaerotheca fuliginea (powdery mildew on cucurbits); conditions: Podosphaera fuliginea, 192 h; 500 ppm of active ingredient; preventive spray on gherkin; evaluated 8 days after inoculation; read-out: efficacy
Outline: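 Young gherkin plants were sprayed with compound in DMSO/acetone/Tween 80 diluted in water. They were inoculated 24 h later with a spore suspension of Sphaerotheca fuliginea. Plants were then kept for 8 days at 20 °C and 70–80% relative humidity.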

Botrytis cinerea [5] = test: B-11. Botrytis cinerea in vitro cell test; format: cell-based; conditions: 144 h, 20 ppm of active ingredient, 6 days incubation, liquid culture, absorbance, read-out: efficacy (inhibition of fungal growth)
Outline: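 B. cinerea spores were grown in liquid culture with compound (DMSO ≤1% final). Mycelium growth was measured spectrometrically after 6 days, with inhibition taken as absorbance relative to untreated control wells.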

Pyrenophora teres [6] = test: In vivo preventive test on Pyrenophora teres (net blotch on barley); conditions: 240 h, 500 ppm of active ingredient, preventive spray on barley, evaluated 10 days after inoculation, read-out: efficacy
Procedure: B-3. In Vivo Preventive Test on Pyrenophora Teres (Net Blotch on Barley) [table] The active ingredients were made soluble and homogenized in a mixture of Dimethyl sulfoxide/Acetone/Tween® 80 and then diluted in water to the desired concentration. The young plants of barley were treated by spraying the active ingredient prepared as described above. Control plants were treated only with an aqueous solution of Acetone/Dimethyl sulfoxide/Tween® 80. After 24 hours, the plants were contaminated by spraying the leaves with an aqueous suspension of Pyrenophora teres spores. The contaminated barley plants were incubated for 48 hours at 20° C. and at 100% relative humidity and then for 8 days at 20° C. and at 70-80% relative humidity.

Alternaria brassicae = test: In vivo preventive test on Alternaria brassicae (leaf spot on radish or cabbage); conditions: 500 ppm of active ingredient, preventive spray on radish or cabbage, evaluated 3 to 4 days after inoculation, read-out: efficacy
Outline: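 Young radish or cabbage plants were sprayed with compound dissolved in DMSO/acetone/Tween 80 and diluted in water; controls received solvent only. Inoculation by spraying A. brassicae spore suspension 24 h later, then 3–4 days at 20 °C and 100% relative humidity.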

Pyrenophora teres [7] = test: B-10. Pyrenophora teres in vitro cell test; format: cell-based; conditions: 144 h, 20 ppm of active ingredient, 6 days incubation, liquid culture, absorbance, read-out: efficacy (inhibition of fungal growth)
Outline: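 Liquid-culture assay on a P. teres spore suspension with compounds added to the medium from DMSO solutions, final DMSO ≤1%. Mycelium growth read spectrometrically after 6 days. Inhibition calculated from absorbance against untreated control wells.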

Septoria tritici = test: B-9. Septoria tritici in vitro cell test; format: cell-based; conditions: Zymoseptoria tritici, 168 h; 20 ppm of active ingredient; 7 days incubation; liquid culture, absorbance; read-out: efficacy (inhibition of fungal growth)
Procedure: B-9. Septoria tritici In Vitro Cell Test [table] Fungicides were solubilized in DMSO and the solution used to prepare the required range of concentrations. The final concentration of DMSO used in the assay was ≤1%. A spore suspension of S. tritici was prepared and diluted to the desired spore density. Fungicides were evaluated for their ability to inhibit spore germination and mycelium growth in liquid culture assay. The compounds were added in the desired concentration to the culture medium with spores. After 7 days incubation, fungi-toxicity of compounds was determined by spectrometric measurement of mycelium growth. Inhibition of fungal growth was determined by comparing the absorbance values in wells containing the fungicides with the absorbance in control wells without fungicides.

Row | SMILES | chromatographic logP [2] | inhibition at 20 ppm [1] | inhibition at 20 ppm (Alternaria alternata) | pest or weed control at 500 ppm (Botrytis cinerea [3]) | pest or weed control at 500 ppm [4] | pest or weed control at 500 ppm (Sphaerotheca fuliginea) | inhibition at 20 ppm (Botrytis cinerea [5]) | pest or weed control at 500 ppm (Pyrenophora teres [6]) | pest or weed control at 500 ppm (Alternaria brassicae) | inhibition at 20 ppm (Pyrenophora teres [7]) | inhibition at 20 ppm (Septoria tritici)
1 | Cc1ccc([C@@H](F)CNC(=O)c2c(Oc3cccc(C(F)(F)F)c3)nnc3c2OCC(C)(C)CO3)c(C)c1 (racemic) [I-156] | 4.15 | 90 to 100% | 90 to 100% |  |  |  | 90 to 100% |  |  | 90 to 100% | 90 to 100%
2 | O=C(NOCc1ccc(C(F)(F)F)cc1)c1c(Oc2cccc(C(F)(F)F)c2)nnc2ccccc12 [I-089] | 3.42 | 90 to 100% | 90 to 100% | 70 to 79% |  |  | 90 to 100% |  | 90 to 100% | 90 to 100% | 80 to 89%
3 | O=C(NCC(F)(F)c1ccc(Cl)cc1)c1c(Oc2cccc(C(F)F)c2)nnc2c1CCCC2 [I-120] | 3.37 | 90 to 100% | 90 to 100% |  |  |  | 90 to 100% |  |  | 90 to 100% | 80 to 89%
4 | Cc1ccc(C(F)CNC(=O)c2c(Oc3cccc(C(F)(F)F)c3)nnc3c2CCC3)c(C)c1 (centres unmarked) [I-138] | 3.84 | 90 to 100% | 90 to 100% |  |  |  | 90 to 100% |  |  | 90 to 100% | 90 to 100%
5 | Cc1cc(Cl)ccc1C(F)(F)CNC(=O)c1c(Oc2cccc(C(F)F)c2)nnc2c1CCCC2 [I-163] |  | 90 to 100% | 90 to 100% |  |  |  | 90 to 100% |  |  | 90 to 100% | 90 to 100%
6 | O=C(NCC(F)c1ccc(Cl)cc1Cl)c1c(Oc2cccc(C(F)F)c2)nnc2c1CCCC2 (centres unmarked) [I-177] | 3.63 | 90 to 100% | 90 to 100% |  |  |  | 90 to 100% |  |  | 90 to 100% | 90 to 100%
7 | O=C(NCC(F)c1ccc(Cl)cc1Cl)c1c(Oc2cccc(Cl)c2)nnc2c1CCCC2 (centres unmarked) [I-179] | 3.89 | 90 to 100% | 90 to 100% |  |  |  | 90 to 100% |  |  | 90 to 100% | 90 to 100%
8 | Cc1ccc(C(F)CNC(=O)c2c(Oc3cccc(Cl)c3)nnc3c2CCCC3)c(C)c1 (centres unmarked) [I-233] | 3.73 | 90 to 100% | 90 to 100% |  |  |  | 90 to 100% |  |  | 90 to 100% | 90 to 100%
9 | Cc1ccc(C(F)CNC(=O)c2c(Oc3cccc(Cl)c3F)nnc3c2CCC3)c(C)c1 (centres unmarked) [I-236] | 3.73 |  | 80 to 89% | 90 to 100% | 90 to 100% | 90 to 100% | 90 to 100% | 90 to 100% | 90 to 100% | 90 to 100% | 

More lines, main results first:

Row | chromatographic logP [2] | SMILES | inhibition at 20 ppm [1] | inhibition at 20 ppm (Alternaria alternata) | pest or weed control at 500 ppm (Botrytis cinerea [3]) | pest or weed control at 500 ppm [4] | pest or weed control at 500 ppm (Sphaerotheca fuliginea) | inhibition at 20 ppm (Botrytis cinerea [5]) | pest or weed control at 500 ppm (Pyrenophora teres [6]) | pest or weed control at 500 ppm (Alternaria brassicae) | inhibition at 20 ppm (Pyrenophora teres [7]) | inhibition at 20 ppm (Septoria tritici)
10 | 4.23 | Cc1cc(Cl)ccc1[C@@H](F)CNC(=O)c1c(Oc2cccc(Cl)c2)nnc2ccccc12 (racemic) [I-053] | 90 to 100% | 90 to 100% | 90 to 100% | 90 to 100% | 80 to 89% | 90 to 100% | 70 to 79% | 90 to 100% |  | 
11 | 4.47 | O=C(NC[C@H](F)c1ccc(C2CC2)cc1Cl)c1c(Oc2cccc(Cl)c2)nnc2ccccc12 (racemic) [I-054] | 90 to 100% | 90 to 100% | 90 to 100% | 90 to 100% | 70 to 79% | 90 to 100% | 80 to 89% | 90 to 100% |  | 
12 | 4.33 | Cc1cc(Br)ccc1[C@@H](F)CNC(=O)c1c(Oc2cccc(Cl)c2)nnc2ccccc12 (racemic) [I-055] | 90 to 100% | 90 to 100% | 90 to 100% | 70 to 79% | 90 to 100% | 90 to 100% | 80 to 89% | 90 to 100% |  | 
13 | 4.17 | Cc1ccc(CCNC(=O)c2c(Oc3cccc(C(F)(F)F)c3)cnc3ccccc23)c(C)c1 [I-002] | 90 to 100% | 90 to 100% | 90 to 100% |  | 90 to 100% | 90 to 100% |  |  |  | 90 to 100%
14 | 4.04 | Cc1ccc(CCNC(=O)c2c(Oc3cccc(C(F)(F)F)c3)cnc3ccoc23)c(C)c1 [I-068] | 90 to 100% | 90 to 100% | 90 to 100% | 90 to 100% | 90 to 100% | 90 to 100% | 80 to 89% | 90 to 100% | 90 to 100% | 
15 | 4.28 | Cc1ccc(C(F)(F)CNC(=O)c2c(Oc3cccc(C(F)(F)F)c3)nnc3c2CCCCC3)c(C)c1 [I-113, N-[2-(2,4-dimethylphenyl)-2,2-difluoro-ethyl]-3-[3-(trifluoro-methyl)phenoxy]-6,7,8,9-tetrahydro-5H-cyclohepta[c]pyridazine-4-carboxamide] | 90 to 100% | 90 to 100% | 90 to 100% | 80 to 89% | 90 to 100% |  | 70 to 79% | 90 to 100% |  | 
16 | 4.59 | Cc1ccc(C(F)(F)CNC(=O)c2c(Oc3cccc(C4CC4)c3)cnc3ccccc23)c(C)c1 [I-223] | 90 to 100% | 90 to 100% | 90 to 100% | 90 to 100% | 90 to 100% | 90 to 100% | 80 to 89% | 90 to 100% | 90 to 100% | 
17 | 4.63 | Cc1ccc(C(F)(F)CNC(=O)c2c(Oc3cccc(C4CC4)c3F)cnc3ccccc23)c(C)c1 [I-224] | 90 to 100% | 90 to 100% | 90 to 100% | 90 to 100% | 90 to 100% | 90 to 100% | 70 to 79% | 80 to 89% | 90 to 100% | 
18 | 4.48 | Cc1ccc(C(F)(F)CNC(=O)c2c(Oc3cccc(Br)c3)cnc3ccccc23)c(C)c1 [I-226] | 90 to 100% | 90 to 100% | 90 to 100% | 90 to 100% | 90 to 100% | 90 to 100% | 70 to 79% | 90 to 100% | 90 to 100% | 
